In this assay the target is T1, Amylin 3(a) receptor (human calcitonin receptor (CTa) with RAMP-3) (Homo sapiens, UniProt O60896+P30988).
T1 construct: expressed in transfected cells; host or cells: BHK570 (baby hamster kidney) cells, stably transfected, with CRE-luciferase reporter
The assay can be described thus: Amylin luciferase assay (CRE-luciferase reporter in BHK Amylin 3(a)//CRE-luc cells). Format: cell-based. The text has this:
It has previously been published (Poyner D R et al 2002, Pharmacological Reviews 54(2) 233-246) that activation of Amylin receptors (coexpression of Calcitonin receptor and receptor activity modifying peptides RAMPs) by Amylin leads to an increase in the intracellular concentration of cAMP. Consequently, transcription is activated at promotors containing multiple copies of the cAMP response element (CRE). It is thus possible to measure Amylin activity by use of a CRE luciferase reporter gene introduced into BHK cells also expressing an Amylin receptor.
2. Construction of an Amylin 3(a)/CRE-luc Cell Line
A BHK570 cell line stably transfected with the human calcitonin receptor (CTa) and a CRE-responsive luciferase reportergene. The cell line was further transfected with RAMP-3, using standard methods. This turns the Calcitonin receptor into an Amylin 3(a) receptor. Methotrexate, Neomycin, and Hygromycin are selection markers for luciferase, the Calcitonin receptor, and RAMP-3, respectively.
3. Amylin Luciferase Assay
To perform activity assays, BHK Amylin 3(a)//CRE-luc cells were seeded in white 96 well culture plates at a density of about 20.000 cells/well. The cells were in 100 μl growth medium (DMEM with 10% FBS, 1% Pen/Strep, 1 mM Na-pyruvate, 250 nM Methotrexate, 500 μg/ml Neomycin, and 400 μg/ml Hygromycin). After incubation overnight at 37° C. and 5% CO2, the growth medium was replaced by 50 μl/well assay medium (DMEM (without phenol red), Glumamax™, 10% FBS, and 10 mM Hepes, pH 7,4). Further, 50 μl/well of standard or sample in assay buffer were added. After 4 hours incubation at 37° C. and 5% CO2, the assay medium with standard or sample were removed and replaced by 100 μl/well PBS. Further, 100 μl/well LucLite™ was added. The plates were sealed and incubated at room temperature for 30 minutes. Finally, luminescence was measured on a TopCounter (Packard) in SPC (single photon counting) mode.

Where [1] appears, read: BHK570 cells with human calcitonin receptor (CTa), RAMP-3 and CRE-luciferase reporter, 4 hours incubation, read-out: Potency luciferase assay.

Data on 5 compounds can be found in US20100222269A1, “IMPROVED DERIVATIVES OF AMYLIN” (priority 2007, published 2010).

Where two headings read alike, the source gives them in different places. Starred links: 1 amine or outer side, 2 acyl side, 3 side chain; linkers in the order of their positions; H or OH if unused. Positions of bridges follow the written chain, without caps; N, C: chain ends. Residues, ends and D or L forms follow the SMILES beside them. Groups on a side chain read outwards from the residue. *: point of attachment. C20 diacid = O=C(O)CCCCCCCCCCCCCCCCCCC(=O)*; C18 diacid = O=C(O)CCCCCCCCCCCCCCCCC(=O)*; γGlu = O=C(O)[C@H](CCC(=O)[*:2])N[*:1]; AEEA = NCCOCCOCC(=O)O

T1 sequence (O60896 24-148): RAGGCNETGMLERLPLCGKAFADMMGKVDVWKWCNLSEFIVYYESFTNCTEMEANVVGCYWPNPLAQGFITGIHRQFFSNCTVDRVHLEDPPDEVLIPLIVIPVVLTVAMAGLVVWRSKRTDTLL
T1 sequence (P30988 25-474): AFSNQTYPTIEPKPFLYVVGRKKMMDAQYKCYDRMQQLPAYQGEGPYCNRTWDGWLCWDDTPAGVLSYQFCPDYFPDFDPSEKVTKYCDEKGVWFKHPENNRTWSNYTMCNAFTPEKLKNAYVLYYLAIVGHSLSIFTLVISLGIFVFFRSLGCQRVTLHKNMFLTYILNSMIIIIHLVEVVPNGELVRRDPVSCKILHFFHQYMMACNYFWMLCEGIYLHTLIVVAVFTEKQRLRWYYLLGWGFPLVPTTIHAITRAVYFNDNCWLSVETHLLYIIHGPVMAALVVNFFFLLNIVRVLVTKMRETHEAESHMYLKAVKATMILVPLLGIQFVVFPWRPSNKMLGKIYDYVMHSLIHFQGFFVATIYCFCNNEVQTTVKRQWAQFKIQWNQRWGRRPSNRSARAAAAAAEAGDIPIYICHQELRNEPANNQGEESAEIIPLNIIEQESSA

Take `CC[C@H](C)[C@H](NC(=O)[C@H](CCCCNC(=O)COCCOCCNC(=O)COCCOCCNC(=O)CCCCCCCCCCCCCCCCC(=O)O)NC(=O)CNC(=O)[C@H](Cc1ccccc1)NC(=O)[C@H](CC(N)=O)NC(=O)[C@H](CC(N)=O)NC(=O)[C@H](CO)NC(=O)[C@H](CO)NC(=O)[C@H](CCCNC(=N)N)NC(=O)[C@@H](NC(=O)[C@H](CC(C)C)NC(=O)[C@H](Cc1ccccc1)NC(=O)[C@H](CC(N)=O)NC(=O)[C@H](C)NC(=O)[C@H](CC(C)C)NC(=O)[C@H](CCCNC(=N)N)NC(=O)[C@H](CCC(N)=O)NC(=O)[C@@H](NC(=O)[C@H](C)NC(=O)[C@@H]1CSSC[C@H](NC(=O)[C@@H](N)CCCCN)C(=O)N[C@@H](CC(N)=O)C(=O)N[C@@H]([C@@H](C)O)C(=O)N[C@@H](C)C(=O)N[C@@H]([C@@H](C)O)C(=O)N1)[C@@H](C)O)C(C)C)C(=O)N[C@@H](CC(C)C)C(=O)N1CCC[C@H]1C(=O)N1CCC[C@H]1C(=O)N[C@H](C(=O)N[C@@H](CC(N)=O)C(=O)N[C@H](C(=O)NCC(=O)N[C@@H](CO)C(=O)N[C@@H](CC(N)=O)C(=O)N[C@H](C(=O)N[C@@H](Cc1ccc(O)cc1)C(N)=O)[C@@H](C)O)C(C)C)[C@@H](C)O` [Example 9, N-epsilon25-(2-{2-[2-(2-{2-[2-(17-carboxyheptadecanoylamino)ethoxy]ethoxy}acetylamino)ethoxy]ethoxy}acetyl)-[Arg18,Lys25]-pramlintide (1-37)] (H-KCNTATCATQRLANFLVRSSNNFGK([AEEA-AEEA-C18 diacid])ILPPTNVGSNTY-NH2; disulfide 2-7): the EC50 under setting [1] stood at 0.04 nM.

`CC[C@H](C)[C@H](NC(=O)[C@H](CCCCNC(=O)COCCOCCNC(=O)COCCOCCNC(=O)CCCCCCCCCCCCCCCCCCC(=O)O)NC(=O)CNC(=O)[C@H](Cc1ccccc1)NC(=O)[C@H](CC(N)=O)NC(=O)[C@H](CC(N)=O)NC(=O)[C@H](CO)NC(=O)[C@H](CO)NC(=O)[C@H](Cc1c[nH]cn1)NC(=O)[C@@H](NC(=O)[C@H](CC(C)C)NC(=O)[C@H](Cc1ccccc1)NC(=O)[C@H](CC(N)=O)NC(=O)[C@H](C)NC(=O)[C@H](CC(C)C)NC(=O)[C@H](CCCNC(=N)N)NC(=O)[C@H](CCC(N)=O)NC(=O)[C@@H](NC(=O)[C@H](C)NC(=O)[C@@H]1CSSC[C@H](NC(=O)[C@@H](N)CCCCN)C(=O)N[C@@H](CC(N)=O)C(=O)N[C@@H]([C@@H](C)O)C(=O)N[C@@H](C)C(=O)N[C@@H]([C@@H](C)O)C(=O)N1)[C@@H](C)O)C(C)C)C(=O)N[C@@H](CC(C)C)C(=O)N1CCC[C@H]1C(=O)N1CCC[C@H]1C(=O)N[C@H](C(=O)N[C@@H](CC(N)=O)C(=O)N[C@H](C(=O)NCC(=O)N[C@@H](CO)C(=O)N[C@@H](CC(N)=O)C(=O)N[C@H](C(=O)N[C@@H](Cc1ccc(O)cc1)C(N)=O)[C@@H](C)O)C(C)C)[C@@H](C)O` [Example 10, N-epsilon25-(2-{2-[2-(2-{2-[2-(19-carboxynonadecanoylamino)ethoxy]ethoxy}acetylamino)ethoxy]ethoxy}acetyl)-[Lys25]-pramlintide (1-37)] (H-KCNTATCATQRLANFLVHSSNNFGK([AEEA-AEEA-C20 diacid])ILPPTNVGSNTY-NH2; disulfide 2-7; N-terminus and C-terminus assumed): the EC50 under setting [1] stood at 0.06 nM.

`CC[C@H](C)[C@H](NC(=O)[C@@H]1CCCN1C(=O)CNC(=O)[C@H](Cc1ccccc1)NC(=O)[C@H](CC(N)=O)NC(=O)[C@H](CC(N)=O)NC(=O)[C@H](CO)NC(=O)[C@H](CO)NC(=O)[C@H](Cc1c[nH]cn1)NC(=O)[C@@H](NC(=O)[C@H](CC(C)C)NC(=O)[C@H](Cc1ccccc1)NC(=O)[C@H](CC(N)=O)NC(=O)[C@H](C)NC(=O)[C@H](CC(C)C)NC(=O)[C@H](CCCNC(=N)N)NC(=O)[C@H](CCC(N)=O)NC(=O)[C@@H](NC(=O)[C@H](C)NC(=O)[C@@H]1CSSC[C@H](NC(=O)[C@@H](N)CCCCN)C(=O)N[C@@H](CCCCNC(=O)COCCOCCNC(=O)COCCOCCNC(=O)CC[C@H](NC(=O)CCCCCCCCCCCCCCCCC(=O)O)C(=O)O)C(=O)N[C@@H]([C@@H](C)O)C(=O)N[C@@H](C)C(=O)N[C@@H]([C@@H](C)O)C(=O)N1)[C@@H](C)O)C(C)C)C(=O)N[C@@H](CC(C)C)C(=O)N1CCC[C@H]1C(=O)N1CCC[C@H]1C(=O)N[C@H](C(=O)N[C@@H](CC(N)=O)C(=O)N[C@H](C(=O)NCC(=O)N[C@@H](CO)C(=O)N[C@@H](CC(N)=O)C(=O)N[C@H](C(=O)N[C@@H](Cc1ccc(O)cc1)C(N)=O)[C@@H](C)O)C(C)C)[C@@H](C)O` [Example 11, N-epsilon3-[2-(2-{2-[2-(2-{2-[(S)-4-carboxy-4-(17-carboxyheptadecanoylamino)butyrylamino]ethoxy}ethoxy)acetylamino]ethoxy}ethoxy)acetyl]-[Lys3]-pramlintide (1-37)] (H-KCK([AEEA-AEEA-γGlu-C18 diacid])TATCATQRLANFLVHSSNNFGPILPPTNVGSNTY-NH2; disulfide 2-7; N-terminus assumed): the EC50 was 0.2 nM.

With `CC[C@H](C)[C@H](NC(=O)[C@@H]1CCCN1C(=O)CNC(=O)[C@H](Cc1ccccc1)NC(=O)[C@H](CC(N)=O)NC(=O)[C@H](CC(N)=O)NC(=O)[C@H](CO)NC(=O)[C@H](CO)NC(=O)[C@H](Cc1c[nH]cn1)NC(=O)[C@@H](NC(=O)[C@H](CC(C)C)NC(=O)[C@H](Cc1ccccc1)NC(=O)[C@H](CC(N)=O)NC(=O)[C@H](C)NC(=O)[C@H](CC(C)C)NC(=O)[C@H](CCCNC(=N)N)NC(=O)[C@H](CCC(N)=O)NC(=O)[C@@H](NC(=O)[C@H](C)NC(=O)[C@@H]1CSSC[C@H](NC(=O)[C@@H](N)CCCCN)C(=O)N[C@@H](CCCCNC(=O)COCCOCCNC(=O)COCCOCCNC(=O)CC[C@H](NC(=O)CCCCCCCCCCCCCCCCCCC(=O)O)C(=O)O)C(=O)N[C@@H]([C@@H](C)O)C(=O)N[C@@H](C)C(=O)N[C@@H]([C@@H](C)O)C(=O)N1)[C@@H](C)O)C(C)C)C(=O)N[C@@H](CC(C)C)C(=O)N1CCC[C@H]1C(=O)N1CCC[C@H]1C(=O)N[C@H](C(=O)N[C@@H](CC(N)=O)C(=O)N[C@H](C(=O)NCC(=O)N[C@@H](CO)C(=O)N[C@@H](CC(N)=O)C(=O)N[C@H](C(=O)N[C@@H](Cc1ccc(O)cc1)C(N)=O)[C@@H](C)O)C(C)C)[C@@H](C)O` [Example 12, N-epsilon3-[2-(2-{2-[2-(2-{2[(S)-4-carboxy-4-(19-carboxynonadecanoylamino)butyrylamino]ethoxy}ethoxy)acetylamino]ethoxy}ethoxy)acetyl]-[Lys3]-pramlintide (1-37)] (H-KCK([AEEA-AEEA-γGlu-C20 diacid])TATCATQRLANFLVHSSNNFGPILPPTNVGSNTY-NH2; disulfide 2-7; N-terminus and C-terminus assumed), the EC50 under setting [1] amounted to 0.3 nM.

Regarding `CC[C@H](C)[C@H](NC(=O)[C@@H]1CCCN1C(=O)CNC(=O)[C@H](Cc1ccccc1)NC(=O)[C@H](CC(N)=O)NC(=O)[C@H](CC(N)=O)NC(=O)[C@H](CO)NC(=O)[C@H](CO)NC(=O)[C@H](Cc1c[nH]cn1)NC(=O)[C@@H](NC(=O)[C@H](CC(C)C)NC(=O)[C@H](Cc1ccccc1)NC(=O)[C@H](CC(N)=O)NC(=O)[C@H](C)NC(=O)[C@H](CC(C)C)NC(=O)[C@H](CCCNC(=N)N)NC(=O)[C@H](CCC(N)=O)NC(=O)[C@@H](NC(=O)[C@H](C)NC(=O)[C@@H]1CSSC[C@H](NC(=O)[C@@H](N)CCCCN)C(=O)N[C@@H](CCCCNC(=O)COCCOCCNC(=O)COCCOCCNC(=O)CCCCCCCCCCCCCCCCCCC(=O)O)C(=O)N[C@@H]([C@@H](C)O)C(=O)N[C@@H](C)C(=O)N[C@@H]([C@@H](C)O)C(=O)N1)[C@@H](C)O)C(C)C)C(=O)N[C@@H](CC(C)C)C(=O)N1CCC[C@H]1C(=O)N1CCC[C@H]1C(=O)N[C@H](C(=O)N[C@@H](CC(N)=O)C(=O)N[C@H](C(=O)NCC(=O)N[C@@H](CO)C(=O)N[C@@H](CC(N)=O)C(=O)N[C@H](C(=O)N[C@@H](Cc1ccc(O)cc1)C(N)=O)[C@@H](C)O)C(C)C)[C@@H](C)O` [Example 13, N-epsilon3-(2-{2-[2-(2-{2-[2-(19-carboxynonadecanoylamino)ethoxy]ethoxy}acetylamino)ethoxy]ethoxy}acetyl)-[Lys3]-pramlintide (1-37)] (H-KCK([AEEA-AEEA-C20 diacid])TATCATQRLANFLVHSSNNFGPILPPTNVGSNTY-NH2; disulfide 2-7; N-terminus assumed), the EC50 under setting [1] worked out at 0.06 nM.
